The target in assay [1] is T1, Human immunodeficiency virus type 1 integrase (Human immunodeficiency virus 1, UniProt Q7ZJM1). Kind of assay: Inhibitory concentration against HIV-1 integrase by strand transfer method.
Assay [2] has as its target T1, Human immunodeficiency virus type 1 integrase. Kind of assay: Inhibitory concentration to inhibit HIV-1 integrase by 3' -processing method.
Assay [3] has the same target. Briefly: Inhibitory concentration required to inhibit HIV-1 integrase by strand transfer method.
For assay [4] the target is unchanged. Kind of assay: Inhibitory concentration to inhibit HIV-1 integrase by 3' -processing.

Our source for the IC50 values is ChEMBL document CHEMBL1129973, “HIV-1 integrase pharmacophore: discovery of inhibitors through three-dimensional database searching” (J Med Chem, 1997).

T1 sequence (Q7ZJM1 whole entry): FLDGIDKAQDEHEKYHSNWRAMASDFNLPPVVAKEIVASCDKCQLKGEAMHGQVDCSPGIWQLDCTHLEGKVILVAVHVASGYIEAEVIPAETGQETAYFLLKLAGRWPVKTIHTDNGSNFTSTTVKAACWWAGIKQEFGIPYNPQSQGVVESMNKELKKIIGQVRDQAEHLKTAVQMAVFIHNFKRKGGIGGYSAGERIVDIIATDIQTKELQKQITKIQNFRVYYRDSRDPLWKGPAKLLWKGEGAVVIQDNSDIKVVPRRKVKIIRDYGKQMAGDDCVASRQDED

In the case of `CC1=NN(c2ccccc2)C(=O)C1/N=N/c1ccc(S(=O)(=O)Nc2nnc(C)s2)cc1` (stereo not given), the IC50 was found to be 77 µM in assay [1] and 134 µM in assay [2].
`NNS(=O)(=O)c1ccc(OCC(=O)O)cc1`: the values for the IC50 in assay [1] and in assay [2] were 8.8 µM and 8.2 µM, respectively.
For the compound `CC(=O)C1(/N=N/c2ccc(S(=O)(=O)Nc3onc(C)c3C)cc2)CCOC1=O` (stereo not given), the IC50 in assay [1] was determined as 143 µM; in assay [2] it was 193 µM.
In the same order, the values of `CC(=O)Nc1cc(S(=O)(=O)O)cc2cc(S(=O)(=O)O)cc(O)c12` are 0.29 µM and 0.47 µM.
Regarding `Cc1cc(NS(=O)(=O)c2ccc(N/N=C3/C(=N)C(C)C(=O)C(C)C3=O)cc2)nc(C)n1` (stereo not given), the concentration for half-maximal inhibition (IC50) in assay [1] and in assay [2] was more than 200 µM throughout.
As to `Cc1nnc(NS(=O)(=O)c2ccc(N/N=C3/C(=N)C(C)C(=O)C(C)C3=O)cc2)s1` (stereo not given), the IC50 in assay [1] and in assay [2] was more than 200 µM throughout.
For the compound `Cc1nnc(NS(=O)(=O)c2ccc(C3SC(=S)NC3=O)cc2)s1` (stereo not given), the IC50 in assay [1] was found to be 19 µM; in assay [2], 24 µM.
For `O=C(Nc1ccc(S(=O)(=O)Nc2ccc(/N=N/c3ccccc3)cc2)cc1)C(Sc1[nH]cnc2ncnc1-2)Sc1[nH]cnc2ncnc1-2`, the values for the IC50 in assay [1] and in assay [2] were 112 µM and 140 µM, respectively.
With `CC(=O)C1(/N=N/c2ccc(S(=O)(=O)Nc3ccccn3)cc2)CCOC1=O` (stereo not given), the IC50 in assay [1] and in assay [2] was more than 200 µM each time.
Turning to `CC(=O)N(C(C)=O)c1nc2c(c(=O)n(C)c(=O)n2C)n1C`, the IC50 in assay [1] and in assay [2] was more than 200 µM throughout.
For `Cc1cc(C)nc(NS(=O)(=O)c2ccc(NC(=O)c3cccn4c(=O)c5ccccc5nc34)cc2)n1`, the IC50 in assay [1] was determined as 44.6 µM; in assay [2], 75.5 µM.
In the same order, the values of `Cc1ccnc(NS(=O)(=O)c2ccc(N/N=C3/C(=N)C(C)C(=O)C(C)C3=O)cc2)n1` (stereo not given) are more than 200 µM and more than 200 µM.
Taken in the same sequence, the figures for `CCOC(=O)C(CCCCn1cnc2ncnc(Cl)c21)(NC(C)=O)C(=O)OCC` were more than 200 µM and more than 200 µM.
With `CC(=O)Nc1ccc(S(=O)(=O)/N=N/NCC(=O)O)cc1`, the IC50 in assay [1] and in assay [2] was more than 200 µM in each case.
Take `CCOC(=O)C(/C=N/c1ccc(S(N)(=O)=O)cc1)C(=O)OCC`: the IC50 in assay [1] and in assay [2] was more than 200 µM each time.
Turning to `CC1=NN(c2ccccc2)C(=O)C1/N=N/c1ccc(S(=O)(=O)Nc2ccccn2)cc1` (stereo not given), the IC50 in assay [1] and in assay [2] was more than 200 µM in each case.
With `COc1cc(NS(=O)(=O)c2ccc(C(C)=O)cc2)nc(OC)n1`, the IC50 in assay [1] and in assay [2] was more than 200 µM each time.
In the case of `CC1=NN(c2ccccc2)C(=O)C1/N=N/c1ccc(S(N)(=O)=O)cc1` (stereo not given), the IC50 in assay [1] and in assay [2] was more than 200 µM throughout.
As for `Cc1ccnc(NS(=O)(=O)c2ccc(NC(=O)Nc3ccc(Cl)c(C(F)(F)F)c3)cc2)n1`, the IC50 in assay [1] worked out at 80 µM; in assay [2] it was 122 µM.
Taken in the same sequence, the figures for `CCOC(=O)COc1ccc(S(=O)(=O)c2ccc(OCC(=O)OCC)cc2)cc1` were more than 200 µM and more than 200 µM.
In the same order, the values of `CS(=O)(=O)c1nc2ccc(N3C(=O)c4ccccc4C3=O)cc2s1` are more than 200 µM and more than 200 µM.
For the compound `Cc1cc(C)nc(NS(=O)(=O)c2ccc(CN3C(=O)c4ccccc4C3=O)cc2)n1`, the concentration for half-maximal inhibition (IC50) in assay [1] and in assay [2] was more than 200 µM throughout.
Take `CCOC(=O)N(CCCCCCNC(c1ccccc1)S(=O)(=O)O)c1ccccc1` (stereo not given): the IC50 in assay [1] and in assay [2] was more than 200 µM in each case.
Regarding `Cc1cc(C)nc(NS(=O)(=O)c2ccc(NC(=O)c3cccc4c(N)c5ccccc5nc34)cc2)n1`, the IC50 in assay [1] was found to be 13.7 µM; in assay [2], 48.3 µM.
Taken in the same sequence, the figures for `CCC(=O)CCC1=Nc2nnc(CCCCc3nnc4n3C(=O)C(CCC(=O)CC)=N4)n2C1=O` were more than 200 µM and more than 200 µM.
For the compound `Cc1csc(NS(=O)(=O)c2ccc(N/N=C3/C(=N)C(C)C(=O)C(C)C3=O)cc2)c1C` (stereo not given), the IC50 in assay [1] and in assay [2] was more than 200 µM in each case.
As to `NS(=O)(=O)c1ccc(NC(=O)/C=C\C(=O)O)cc1`, the IC50 in assay [1] and in assay [2] was more than 200 µM in each case.
As to `O=C(O)c1ccccc1/C=N/NC1=CS(=O)(=O)C=C1`, the IC50 in assay [1] and in assay [2] was more than 200 µM each time.
Take `CC1=NN(c2ccccc2)C(=O)C1/N=N/c1ccc(S(=O)(=O)Nc2cc(C)nc(C)n2)cc1` (stereo not given): the IC50 in assay [1] and in assay [2] was more than 200 µM throughout.
Consider `CC1=NN(c2ccccc2)C(=O)C1/N=N/c1ccc(S(=O)(=O)Nc2ncccn2)cc1` (stereo not given), for which the IC50 in assay [1] and in assay [2] was more than 200 µM throughout.
Regarding `CC1=NN(c2ccccc2)C(=O)C1/N=N/c1ccc(S(=O)(=O)Nc2nccc(C)n2)cc1` (stereo not given), the IC50 in assay [1] is 23.6 µM; in assay [2], 49 µM.
Taken in the same sequence, the figures for `Nc1nc(N)c(/N=N/c2ccc(S(=O)(=O)NC(=O)c3ccccc3)cc2)c(O)n1` were 96 µM and 120 µM.
For `CC(=O)C1(/N=N/c2ccc(S(=O)(=O)Nc3nnc(C)s3)cc2)CCOC1=O` (stereo not given), the results for the IC50 in assay [1] and in assay [2] were 178 µM and 244 µM, respectively.
Taken in the same sequence, the figures for `CC(=O)Nc1cccc2cc(S(=O)(=O)O)ccc12` were 14.3 µM and 27.9 µM.
In the same order, the values of `CC(=O)Nc1cc2cc(NS(=O)(=O)c3cc(C(F)(F)F)cc(C(F)(F)F)c3)ccc2oc1=O` are more than 200 µM and more than 200 µM.
Take `CC1C(=N)/C(=N/Nc2ccc(S(=O)(=O)Nc3ccccn3)cc2)C(=O)C(C)C1=O` (stereo not given): the IC50 in assay [1] and in assay [2] was more than 200 µM throughout.
As for `CC1C(=N)/C(=N/Nc2ccc(S(=O)(=O)Nc3nccs3)cc2)C(=O)C(C)C1=O` (stereo not given), the half-inhibitory concentration (IC50) in assay [1] and in assay [2] was more than 200 µM throughout.
For `NS(=O)(=O)c1ccc(NC=C2C(=O)N(c3ccccc3)N(c3ccccc3)C2=O)cc1`, the IC50 in assay [1] and in assay [2] was more than 200 µM in each case.
As to `NS(=O)(=O)c1ccc(NC(=O)/C=C/C(=O)O)cc1`, the IC50 in assay [1] and in assay [2] was more than 200 µM each time.
As to `CC1C(=N)/C(=N/Nc2ccc(S(=O)(=O)Nc3ncccn3)cc2)C(=O)C(C)C1=O` (stereo not given), the IC50 in assay [1] and in assay [2] was more than 200 µM throughout.
In the case of `O=C(Nc1ccc(S(=O)(=O)Nc2ccc(/N=N/c3ccc(S(=O)(=O)Nc4nccs4)cc3)cc2)cc1)C(N1CC1)(N1CC1)N1CC1`, the IC50 in assay [1] and in assay [2] was more than 200 µM each time.
As for `O=C(CNC(=O)c1cnc2ccccc2n1)NCCCNC(=O)CNC(=O)c1cnc2ccccc2n1`, the IC50 in assay [1] and in assay [2] was more than 200 µM in each case.
For `Cc1ccccc1CN1C2=NCCN2C(=O)C2=C1CCN(S(=O)(=O)c1ccc(Cl)c(S(N)(=O)=O)c1)C2`, the IC50 in assay [1] and in assay [2] was more than 200 µM throughout.
On to `CC(=O)Nc1ccc(N)c2cc(S(=O)(=O)O)ccc12`, for which the values for the IC50 in assay [1] and in assay [2] were 2.7 µM and 3.4 µM, respectively.
Taken in the same sequence, the figures for `C=C1CC(c2ccc(S(=O)(=O)N3CCOCC3)cc2)OC1=O` (stereo not given) were more than 200 µM and more than 200 µM.
Consider `COC(=O)c1noc2c1CSC1=C2CS(=O)(=O)c2ccccc21`, for which the IC50 in assay [1] and in assay [2] was more than 200 µM in each case.
For `CC(=O)NCCSS(=O)(=O)CCCCCS(=O)(=O)SCCNC(C)=O`, the IC50 in assay [1] and in assay [2] was more than 200 µM in each case.
In the case of `CC(=O)OCC1OC(n2ccc(-n3cncn3)nc2=O)CC1N=[N+]=[N-]` (stereo not given), the IC50 in assay [1] and in assay [2] was more than 200 µM throughout.
As for `NC1=NNC(=O)C1/N=N/c1ccc(S(=O)(=O)Nc2nccs2)cc1` (stereo not given), the IC50 was 61 µM in assay [1] and 71 µM in assay [2].
Consider `CCOC(=S)SC1OC(COC(C)=O)C(OC(C)=O)C(OC(C)=O)C1OC(C)=O` (stereo not given), for which the IC50 in assay [1] and in assay [2] was more than 200 µM in each case.
On to `CCOC(=O)C(Cc1cn(S(=O)(=O)c2ccccc2)c2ccccc12)(NC(C)=O)C(=O)OCC`, for which the IC50 in assay [1] and in assay [2] was more than 200 µM in each case.
Regarding `CCC(=O)C(C)C(=O)C(=O)NCCNC(=O)C(=O)C(C)C(=O)CC` (stereo not given), the IC50 in assay [1] and in assay [2] was more than 200 µM throughout.
Take `CC1=NN(c2ccccc2)C(=O)C1/N=N/c1ccc(S(=O)(=O)Nc2scc(C)c2C)cc1` (stereo not given): the IC50 in assay [3] is 97 µM; in assay [4], 124 µM.
Take `CC(=O)C1(/N=N/c2ccc(S(=O)(=O)Nc3nccc(C)n3)cc2)CCOC1=O` (stereo not given): the IC50 amounted to 65 µM in assay [1] and 70 µM in assay [2].
As to `CS(=O)(=O)Nc1ccc2oc(=O)c3ccccc3c2c1`, the IC50 in assay [1] and in assay [2] was more than 200 µM throughout.
Regarding `NS(=O)(=O)c1ccc(NN=C2C(=O)N(c3ccccc3)N(c3ccccc3)C2=O)cc1`, the IC50 in assay [1] and in assay [2] was more than 200 µM each time.
Regarding `O=C1NC(=S)SC1c1ccc(S(=O)(=O)Nc2ncccn2)cc1` (stereo not given), the IC50 in assay [1] worked out at 14 µM; in assay [2], 28.6 µM.
In the same order, the values of `NS(=O)(=O)c1ccc(/N=N/C2Sc3nc4ccccc4n3C2=O)cc1` (stereo not given) are 126 µM and 209 µM.
For the compound `Nc1ncnc2c1ncn2[C@@H]1O[C@H](CO[C@@H]2[C@@H](O)[C@H](OS(=O)(=O)O)[C@H](O)[C@@H](O[C@H]3O[C@@H](CO)[C@@H](O)[C@H](O)[C@@H]3N)[C@]2(O)C(=O)[C@@H](N)CO)[C@@H](O)[C@H]1O`, the IC50 in assay [1] and in assay [2] was more than 200 µM throughout.
On to `O=C(O)[C@H]1OC(n2cc([N+](=O)[O-])c(=O)[nH]c2=O)[C@H](O)[C@@H]1O` (stereo not given in full), for which the IC50 in assay [1] and in assay [2] was more than 200 µM each time.
